# Source: patent US9902728B2, “Pyrrolo and pyrazolopyrimidines as ubiquitin-specific protease 7 inhibitors” (Forma Therapeutics, Inc., priority 2014, dated 2018)
# Biological target: T1, USP7 (Homo sapiens, UniProt Q93009)
# T1 construct: USP7, construct USP7 (208-1102) 6*His, Viva Biotech; 6xHis (C); purchased Viva Biotech
# Test: USP7 Assay A (Ubitquin-Rhodamine 110 Assay)
# Format: biochemical
# Conditions: USP7 activity in USP7 assay A and B (table does not say which assay per compound); read-out: USP7_IC50
# How it was run: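 Ub-Rh110 cleavage in 20 mM Tris-HCl pH 8.0 with 1 mM GSH, 0.03% BGG, 0.01% Triton X-100; compound preincubated with enzyme 30 min before substrate.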
# T1 sequence (Q93009 208-1102): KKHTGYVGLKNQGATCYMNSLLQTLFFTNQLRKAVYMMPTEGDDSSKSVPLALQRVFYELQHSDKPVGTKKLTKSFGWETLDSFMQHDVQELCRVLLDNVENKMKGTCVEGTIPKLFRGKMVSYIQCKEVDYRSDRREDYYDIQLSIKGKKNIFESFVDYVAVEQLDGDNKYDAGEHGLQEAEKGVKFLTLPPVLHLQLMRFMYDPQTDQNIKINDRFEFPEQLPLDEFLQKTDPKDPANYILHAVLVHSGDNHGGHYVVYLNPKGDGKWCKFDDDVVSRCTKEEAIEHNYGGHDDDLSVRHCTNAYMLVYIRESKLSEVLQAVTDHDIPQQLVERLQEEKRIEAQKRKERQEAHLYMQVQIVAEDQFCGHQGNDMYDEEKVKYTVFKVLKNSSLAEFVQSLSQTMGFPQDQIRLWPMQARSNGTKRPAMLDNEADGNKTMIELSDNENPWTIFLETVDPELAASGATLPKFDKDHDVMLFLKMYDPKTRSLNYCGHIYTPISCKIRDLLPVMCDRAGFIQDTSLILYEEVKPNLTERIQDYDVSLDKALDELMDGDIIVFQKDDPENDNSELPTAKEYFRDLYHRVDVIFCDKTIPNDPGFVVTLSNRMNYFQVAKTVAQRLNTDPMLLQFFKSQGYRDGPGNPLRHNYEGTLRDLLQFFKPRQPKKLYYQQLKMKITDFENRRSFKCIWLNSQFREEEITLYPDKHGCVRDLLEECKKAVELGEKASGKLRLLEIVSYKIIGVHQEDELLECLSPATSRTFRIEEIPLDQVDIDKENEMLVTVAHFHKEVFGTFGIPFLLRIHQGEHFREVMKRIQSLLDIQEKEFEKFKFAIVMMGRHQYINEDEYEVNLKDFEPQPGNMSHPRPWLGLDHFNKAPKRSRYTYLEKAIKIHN
row,SMILES,IC50 [nM]
1,O=C(C[C@H](n1cccn1)C(F)(F)F)N1CCC(O)(Cn2cnc3c(cnn3-c3ccc(F)cc3)c2=O)CC1 [Compound I-912],1000 to 10000
2,O=C(C[C@@H](n1cccn1)C(F)(F)F)N1CCC(O)(Cn2cnc3c(cnn3-c3ccc(F)cc3)c2=O)CC1 [Compound I-913],1000 to 10000
3,O=C(c1cnc(N2CCC(O)CC2)o1)N1CCC(O)(Cn2cnc3c(cnn3-c3ccc(F)cc3)c2=O)CC1 [Compound I-915],1000 to 10000
4,Cc1ccc(-n2ncc3c(=O)n(CC4(O)CCN(C(=O)C5CC(Oc6ccccn6)C5)CC4)cnc32)cc1 (stereo not drawn) [Compound I-917],1000 to 10000
5,O=C(C[C@@H](C(F)F)n1cc(F)cn1)N1CCC(O)(Cn2cnc3c(cnn3-c3ccc(F)cc3)c2=O)CC1 [Compound I-918],> 10000
6,O=C(c1ccc(-n2cnnc2)cc1)N1CCC(O)(Cn2cnc3c(cnn3-c3ccc(Cl)cc3)c2=O)CC1 [Compound I-919],1000 to 10000
7,CN1CCC(Oc2ccc(C(=O)N3CCC(O)(Cn4cnc5c(cnn5-c5ccc(Cl)cc5)c4=O)CC3)cn2)C1 (stereo not drawn) [Compound I-920],1000 to 10000
8,Cn1cc(C(=O)N2CCC(O)(Cn3cnc4c(cnn4-c4ccc(F)cc4)c3=O)CC2)c(Cn2cccn2)n1 [Compound I-921],1000 to 10000
9,Cc1cc(OC2CCN(C(=O)N3CCC(O)(Cn4cnc5c(cnn5-c5ccc(F)cc5)c4=O)CC3)CC2)no1 [Compound I-922],1000 to 10000
10,Cn1cc(OC2CCN(C(=O)N3CCC(O)(Cn4cnc5c(cnn5-c5ccc(F)cc5)c4=O)CC3)CC2)cn1 [Compound I-923],1000 to 10000
11,CC(=O)NC1CCC(C(=O)N2CCC(O)(Cn3cnc4c(cnn4-c4ccc(F)cc4)c3=O)CC2)CC1 (stereo not drawn) [Compound I-924],1000 to 10000
12,O=C(C1CCC(OC2CCOCC2)CC1)N1CCC(O)(Cn2cnc3c(cnn3-c3ccc(F)cc3)c2=O)CC1 (stereo not drawn) [Compound I-925],1000 to 10000
13,O=C(C1CCC(OC2CCOCC2)CC1)N1CCC(O)(Cn2cnc3c(cnn3-c3ccc(F)cc3)c2=O)CC1 (stereo not drawn) [Compound I-926],200 to 1000
14,"CN1CCN(c2cnn(-c3ccc(-n4ncc5c(=O)n(CC6(O)CCN(C(=O)C7CC7)CC6)cnc54)cc3)c2)CC1 [Compound I-975, 5-[(1-cyclopropanecarbonyl-4-hydroxypiperidin-4-yl)methyl]-1-{4-[4-(4-methylpiperazin-1-yl)-1H-pyrazol-1-yl]phenyl}-1H,4H,5H-pyrazolo[3,4-d]pyrimidin-4-one]",200 to 1000
15,O=C(c1ccc(F)cc1)N1CCC(O)(Cn2cnc3c(cnn3-c3ccc(-n4cc5c(n4)CCOC5)cc3)c2=O)CC1 [Compound I-976],1000 to 10000
16,O=C(C1CC1)N1CCC(O)(Cn2cnc3c(cnn3-c3ccc(-n4cc(OCCO)cn4)cc3)c2=O)CC1 [Compound I-977],1000 to 10000
17,O=C(c1cnc(C2CC2)o1)N1CCC(O)(Cn2cnc3c(cnn3-c3ccc(OCC4(F)CCC4)cc3)c2=O)CC1 [Compound I-981],< 200
18,Cc1nc(-c2ccc(-n3ncc4c(=O)n(CC5(O)CCN(C(=O)c6ccc(F)cc6)CC5)cnc43)cc2)c[nH]1 [Compound I-983],1000 to 10000
19,Cc1cnc(-c2ccc(-n3ncc4c(=O)n(CC5(O)CCN(C(=O)c6ccc(F)cc6)CC5)cnc43)cc2)n1C [Compound I-984],1000 to 10000
20,O=C(c1cnc(C2CC2)o1)N1CCC(O)(Cn2cnc3c(cnn3-c3ccc(-c4cccnc4)cc3)c2=O)CC1 [Compound I-985],200 to 1000
21,Cc1cn(-c2ccc(-n3ncc4c(=O)n(CC5(O)CCN(C(=O)c6ccc(F)cc6)CC5)cnc43)cc2)cn1 [Compound I-987],1000 to 10000
22,Cc1nccn1-c1ccc(-n2ncc3c(=O)n(CC4(O)CCN(C(=O)c5ccc(F)cc5)CC4)cnc32)cc1 [Compound I-988],1000 to 10000
23,CN1Cc2cnn(-c3ccc(C(=O)N4CCC(O)(Cn5cnc6c(cnn6-c6ccc(F)cc6)c5=O)CC4)cc3)c2C1 [Compound I-1000],1000 to 10000

row,SMILES,IC50 [nM]
1,CN1Cc2cn(-c3ccc(C(=O)N4CCC(O)(Cn5cnc6c(cnn6-c6ccc(F)cc6)c5=O)CC4)cc3)nc2C1 [Compound I-1001],1000 to 10000
2,"NC(=O)Cn1cc(-c2ccc(C(=O)N3CCC(O)(Cn4cnc5c(cnn5-c5ccc(F)cc5)c4=O)CC3)cc2)cn1 [Compound I-1002, 2-(4-(4-(4-((1-(4-fluorophenyl)-4-oxo-1H-pyrazolo[3,4-d]pyrimidin-5(4H)-yl)methyl)-4-hydroxypiperidine-1-carbonyl)phenyl)-1H-pyrazol-1-yl)acetamide]",1000 to 10000
3,C=CC(=O)N1[C@@H](C(=O)N2CCC(O)(Cn3cnc4c(cnn4-c4ccc(F)cc4)c3=O)CC2)C[C@@H]1C [Compound I-1003],1000 to 10000
4,O=C(c1ccc(N2CC3CC2CN3)cc1)N1CCC(O)(Cn2cnc3c(cnn3-c3ccc(F)cc3)c2=O)CC1 (stereo not drawn) [Compound I-1005],1000 to 10000
5,O=C(c1ccc(-c2cnn(CCO)c2)cc1)N1CCC(O)(Cn2cnc3c(cnn3-c3ccc(F)cc3)c2=O)CC1 [Compound I-1006],1000 to 10000
6,O=C(C1CC1)N1CCC(O)(Cn2cnc3c(ccn3-c3cccc(CN4CCCCC4)c3)c2=O)CC1 [Compound I-1009],1000 to 10000
7,O=C(C1CC1)N1CCC(O)(Cn2cnc3c(ccn3-c3ccc(F)c(CN4CCCCC4)c3)c2=O)CC1 [Compound I-1010],1000 to 10000
8,N#Cc1ccc(OC2CCC(C(=O)N3CCC(O)(Cn4cnc5c(cnn5-c5ccc(F)cc5)c4=O)CC3)CC2)nc1 (stereo not drawn) [Compound I-1014],200 to 1000
9,Cc1cncc(OC2CCC(C(=O)N3CCC(O)(Cn4cnc5c(cnn5-c5ccc(F)cc5)c4=O)CC3)CC2)n1 (stereo not drawn) [Compound I-1015],200 to 1000
10,Cc1nccc(OC2CCC(C(=O)N3CCC(O)(Cn4cnc5c(cnn5-c5ccc(F)cc5)c4=O)CC3)CC2)n1 (stereo not drawn) [Compound I-1016],200 to 1000
11,O=C(C1CCC(Oc2cccnc2F)CC1)N1CCC(O)(Cn2cnc3c(cnn3-c3ccccc3)c2=O)CC1 (stereo not drawn) [Compound I-1017],200 to 1000
12,O=C(C1CCC(Oc2cccc(N3CCC3)n2)CC1)N1CCC(O)(Cn2cnc3c(cnn3-c3ccc(F)cc3)c2=O)CC1 (stereo not drawn) [Compound I-1018],< 200
13,COc1ccc(OC2CCC(C(=O)N3CCC(O)(Cn4cnc5c(cnn5-c5ccc(F)cc5)c4=O)CC3)CC2)nc1 (stereo not drawn) [Compound I-1019],200 to 1000
14,COc1ccc(OC2CCC(C(=O)N3CCC(O)(Cn4cnc5c(cnn5-c5ccccc5)c4=O)CC3)CC2)nc1 (stereo not drawn) [Compound I-1020],200 to 1000
15,O=C(C1CCC(Oc2cnccn2)CC1)N1CCC(O)(Cn2cnc3c(cnn3-c3ccc(F)cc3)c2=O)CC1 (stereo not drawn) [Compound I-1021],200 to 1000
16,Cc1ncc(OC2CCC(C(=O)N3CCC(O)(Cn4cnc5c(cnn5-c5ccc(F)cc5)c4=O)CC3)CC2)cn1 (stereo not drawn) [Compound I-1022],200 to 1000
17,O=C(C1CCC(Nc2cccc(F)n2)CC1)N1CCC(O)(Cn2cnc3c(cnn3-c3ccc(F)cc3)c2=O)CC1 (stereo not drawn) [Compound I-1023],< 200
18,O=C(C1CCC(Nc2cccc(F)n2)CC1)N1CCC(O)(Cn2cnc3c(cnn3-c3ccc(F)cc3)c2=O)CC1 (stereo not drawn) [Compound I-1024],< 200
19,CC(c1ccccc1)c1nn(C)cc1C(=O)N1CCC(O)(Cn2cnc3c(cnn3-c3ccc(F)cc3)c2=O)CC1 (stereo not drawn) [Compound I-1025],200 to 1000
20,C[C@H](CC(=O)N1CCC(O)(Cn2cnc3c(cnn3-c3ccc(F)cc3)c2=O)CC1)n1ccc(F)n1 [Compound I-1028],< 200
21,C[C@@H](CC(=O)N1CCC(O)(Cn2cnc3c(cnn3-c3ccc(F)cc3)c2=O)CC1)n1ccc(F)n1 [Compound I-1029],1000 to 10000
22,O=C(C1CC(Nc2cccnc2)C1)N1CCC(O)(Cn2cnc3c(cnn3-c3ccc(F)cc3)c2=O)CC1 (stereo not drawn) [Compound I-1030],200 to 1000
23,O=C(C1CC(Nc2cccnc2)C1)N1CCC(O)(Cn2cnc3c(cnn3-c3ccc(F)cc3)c2=O)CC1 (stereo not drawn) [Compound I-1031],200 to 1000

# Same assay, conditions: USP7 assay A and B (table does not say which assay per compound); read-out: USP7_IC50
row,SMILES,IC50 [nM]
1,Cn1ncc2c(=O)n(CC3(O)CCN(C(=O)C[C@@H](c4ccccc4)C(F)(F)F)CC3)cnc21 [Compound I-861],> 10000
2,Cc1nnc(-c2ccc(C(=O)N3CCC(O)(Cn4cnc5c(cnn5-c5ccc(F)cc5)c4=O)CC3)cc2)o1 [Compound I-911],1000 to 10000
3,C#CC(=O)NC1CC(C(=O)N2CCC(O)(Cn3cnc4c(cnn4-c4ccc(F)cc4)c3=O)CC2)C1 (stereo not drawn) [Compound I-950],1000 to 10000
4,C#CC(=O)N[C@@H]1CC[C@@H]1C(=O)N1CCC(O)(Cn2cnc3c(cnn3-c3ccc(F)cc3)c2=O)CC1 [Compound I-952],200 to 1000
5,Nc1cccc(-n2ncc3c(=O)n(CC4(O)CCN(C(=O)C5CC5)CC4)cnc32)c1 [Compound I-964],1000 to 10000
6,Nc1ccc(-n2ncc3c(=O)n(CC4(O)CCN(C(=O)C5CC5)CC4)cnc32)cc1 [Compound I-965],1000 to 10000
7,CN(C)C(=O)N1CCC(O)(Cn2cnc3c(cnn3-c3ccc(N4CCNCC4)cc3)c2=O)CC1 [Compound I-967],1000 to 10000
8,CN1CCN(c2ccc(-n3ncc4c(=O)n(CC5(O)CCN(C(=O)c6ccccc6)CC5)cnc43)cc2F)CC1 [Compound I-970],1000 to 10000
9,CO[C@]1(C)CCN(c2cc(-n3ncc4c(=O)n(CC5(O)CCN(C(=O)C6CC6)CC5)cnc43)ccc2F)C1 [Compound I-972],1000 to 10000
10,CN(C)C(=O)N1CCC(O)(Cn2cnc3c(cnn3-c3cccc(N4C[C@@H](O)[C@H](F)C4)c3)c2=O)CC1 [Compound I-974],1000 to 10000
11,O=C(c1ccc(OC(F)F)cc1)N1CCC(O)(Cn2cnc3c(cnn3-c3cccc(CO)c3)c2=O)CC1 [Compound I-989],1000 to 10000
12,CC(C)N1CCC(c2ccc(-n3ncc4c(=O)n(CC5(O)CCN(C(=O)N(C)C)CC5)cnc43)cc2)CC1 [Compound I-992],1000 to 10000
13,O=C(c1ccc(F)cc1)N1CCC(O)(Cn2cnc3c(cnn3-c3cccc(C4CCNCC4)c3)c2=O)CC1 [Compound I-993],1000 to 10000
14,"CN1CCCCC1CCc1ccc(-n2ncc3c(=O)n(CC4(O)CCN(C(=O)c5ccc(F)cc5)CC4)cnc32)cc1 (stereo not drawn) [Compound I-1007, 5-((1-(4-fluorobenzoyl)-4-hydroxypiperidin-4-yl)methyl)-1-(4-(2-(1-methylpiperidin-2-yl)ethyl)phenyl)-1H-pyrazolo[3,4-d]pyrimidin-4(5H)-one]",1000 to 10000
